From the supplement of paper PMC8882468

Each compound was assayed on HCI-024 (organoid from a breast cancer xenograft) (assay: CTG-3D luminescence at 96 h relative to day-0 seeding control (ratio to day 0); higher = more growth / less cytotoxicity; PDxO 3D drug screen, 96 h, CTG-3D normalised to day-0 seeding control.). Conditions: 0.005 µM; days in culture: 122.

| Structure (SMILES) | CTG-3D luminescence at 96 h |
| --- | --- |
| C[C@H](NC(=O)CCC(F)(F)F)C(=O)N[C@@H]1C(=O)N(CCO)c2ncccc2-c2ccccc21 [crenigacestat] | 1.92 |
| Cc1cc(Nc2ncc(Cl)c(Nc3ccccc3S(=O)(=O)C(C)C)n2)c(OC(C)C)cc1C1CCNCC1 [ceritinib] | 1.23 |
| CS(=O)(=O)c1ccc(C(=O)Nc2ccc(Cl)c(-c3ccccn3)c2)c(Cl)c1 [vismodegib] | 2.14 |
| NC(=O)c1cccc2cn(-c3ccc([C@@H]4CCCNC4)cc3)nc12 [niraparib] | 2.08 |
| Cc1cc(Nc2ncnc3ccc(NC4=NC(C)(C)CO4)cc23)ccc1Oc1ccn2ncnc2c1 [tucatinib] | 2.36 |
| CCN(c1cc(C#CCN2CCOCC2)cc(C(=O)NCc2c(C)cc(C)[nH]c2=O)c1C)[C@H]1CC[C@H](N(C)CCOC)CC1 | 2.04 |

Same assay, conditions: 0.005 µM; days in culture: 163

| Structure (SMILES) | CTG-3D luminescence at 96 h |
| --- | --- |
| NC1(C(=O)N[C@@H](CCO)c2ccc(Cl)cc2)CCN(c2nc[nH]c3nccc2-3)CC1 [capivasertib] | 1.93 |
| CC(C)n1nc(-c2ccc3oc(N)nc3c2)c2c(N)ncnc21 [sapanisertib] | 1.59 |
| O=C(c1ccc(F)c(F)c1Nc1ccc(I)cc1F)N1CC(O)([C@@H]2CCCCN2)C1 [cobimetinib] | 1.89 |
| C[C@H](NC(=O)CCC(F)(F)F)C(=O)N[C@@H]1C(=O)N(CCO)c2ncccc2-c2ccccc21 [crenigacestat] | 2.01 |
| Cc1cc(Nc2ncc(Cl)c(Nc3ccccc3S(=O)(=O)C(C)C)n2)c(OC(C)C)cc1C1CCNCC1 [ceritinib] | 1.59 |
| CS(=O)(=O)c1ccc(C(=O)Nc2ccc(Cl)c(-c3ccccn3)c2)c(Cl)c1 [vismodegib] | 1.87 |
| NC(=O)c1cccc2cn(-c3ccc([C@@H]4CCCNC4)cc3)nc12 [niraparib] | 1.82 |
| Cc1cc(Nc2ncnc3ccc(NC4=NC(C)(C)CO4)cc23)ccc1Oc1ccn2ncnc2c1 [tucatinib] | 1.49 |
| CCN(c1cc(C#CCN2CCOCC2)cc(C(=O)NCc2c(C)cc(C)[nH]c2=O)c1C)[C@H]1CC[C@H](N(C)CCOC)CC1 | 1.77 |

Same assay, conditions: 0.1 µM; days in culture: 105

| Structure (SMILES) | CTG-3D luminescence at 96 h |
| --- | --- |
| NC1(C(=O)N[C@@H](CCO)c2ccc(Cl)cc2)CCN(c2nc[nH]c3nccc2-3)CC1 [capivasertib] | 1.47 |
| CC(C)n1nc(-c2ccc3oc(N)nc3c2)c2c(N)ncnc21 [sapanisertib] | 0.885 |
| O=C(c1ccc(F)c(F)c1Nc1ccc(I)cc1F)N1CC(O)([C@@H]2CCCCN2)C1 [cobimetinib] | 1.36 |
| C[C@H](NC(=O)CCC(F)(F)F)C(=O)N[C@@H]1C(=O)N(CCO)c2ncccc2-c2ccccc21 [crenigacestat] | 1.59 |
| Cc1cc(Nc2ncc(Cl)c(Nc3ccccc3S(=O)(=O)C(C)C)n2)c(OC(C)C)cc1C1CCNCC1 [ceritinib] | 1.29 |
| CS(=O)(=O)c1ccc(C(=O)Nc2ccc(Cl)c(-c3ccccn3)c2)c(Cl)c1 [vismodegib] | 1.77 |
| NC(=O)c1cccc2cn(-c3ccc([C@@H]4CCCNC4)cc3)nc12 [niraparib] | 1.43 |
| Cc1cc(Nc2ncnc3ccc(NC4=NC(C)(C)CO4)cc23)ccc1Oc1ccn2ncnc2c1 [tucatinib] | 1.61 |
| CCN(c1cc(C#CCN2CCOCC2)cc(C(=O)NCc2c(C)cc(C)[nH]c2=O)c1C)[C@H]1CC[C@H](N(C)CCOC)CC1 | 1.53 |

Same assay, conditions: 0.1 µM; days in culture: 122

| Structure (SMILES) | CTG-3D luminescence at 96 h |
| --- | --- |
| NC1(C(=O)N[C@@H](CCO)c2ccc(Cl)cc2)CCN(c2nc[nH]c3nccc2-3)CC1 [capivasertib] | 1.68 |
| CC(C)n1nc(-c2ccc3oc(N)nc3c2)c2c(N)ncnc21 [sapanisertib] | 0.922 |
| O=C(c1ccc(F)c(F)c1Nc1ccc(I)cc1F)N1CC(O)([C@@H]2CCCCN2)C1 [cobimetinib] | 1.03 |
| C[C@H](NC(=O)CCC(F)(F)F)C(=O)N[C@@H]1C(=O)N(CCO)c2ncccc2-c2ccccc21 [crenigacestat] | 1.72 |
| Cc1cc(Nc2ncc(Cl)c(Nc3ccccc3S(=O)(=O)C(C)C)n2)c(OC(C)C)cc1C1CCNCC1 [ceritinib] | 1.88 |
| CS(=O)(=O)c1ccc(C(=O)Nc2ccc(Cl)c(-c3ccccn3)c2)c(Cl)c1 [vismodegib] | 2.07 |
| NC(=O)c1cccc2cn(-c3ccc([C@@H]4CCCNC4)cc3)nc12 [niraparib] | 1.71 |
| Cc1cc(Nc2ncnc3ccc(NC4=NC(C)(C)CO4)cc23)ccc1Oc1ccn2ncnc2c1 [tucatinib] | 1.93 |
| CCN(c1cc(C#CCN2CCOCC2)cc(C(=O)NCc2c(C)cc(C)[nH]c2=O)c1C)[C@H]1CC[C@H](N(C)CCOC)CC1 | 1.85 |

Same assay, conditions: 0.1 µM; days in culture: 163

| Structure (SMILES) | CTG-3D luminescence at 96 h |
| --- | --- |
| NC1(C(=O)N[C@@H](CCO)c2ccc(Cl)cc2)CCN(c2nc[nH]c3nccc2-3)CC1 [capivasertib] | 2.41 |
| CC(C)n1nc(-c2ccc3oc(N)nc3c2)c2c(N)ncnc21 [sapanisertib] | 1.61 |
| O=C(c1ccc(F)c(F)c1Nc1ccc(I)cc1F)N1CC(O)([C@@H]2CCCCN2)C1 [cobimetinib] | 2.26 |
| C[C@H](NC(=O)CCC(F)(F)F)C(=O)N[C@@H]1C(=O)N(CCO)c2ncccc2-c2ccccc21 [crenigacestat] | 2.48 |
| Cc1cc(Nc2ncc(Cl)c(Nc3ccccc3S(=O)(=O)C(C)C)n2)c(OC(C)C)cc1C1CCNCC1 [ceritinib] | 2.47 |
| CS(=O)(=O)c1ccc(C(=O)Nc2ccc(Cl)c(-c3ccccn3)c2)c(Cl)c1 [vismodegib] | 2.29 |
| NC(=O)c1cccc2cn(-c3ccc([C@@H]4CCCNC4)cc3)nc12 [niraparib] | 2.37 |
| Cc1cc(Nc2ncnc3ccc(NC4=NC(C)(C)CO4)cc23)ccc1Oc1ccn2ncnc2c1 [tucatinib] | 2.11 |
| CCN(c1cc(C#CCN2CCOCC2)cc(C(=O)NCc2c(C)cc(C)[nH]c2=O)c1C)[C@H]1CC[C@H](N(C)CCOC)CC1 | 2.62 |

Same assay, conditions: 1 µM; days in culture: 105

| Structure (SMILES) | CTG-3D luminescence at 96 h |
| --- | --- |
| NC1(C(=O)N[C@@H](CCO)c2ccc(Cl)cc2)CCN(c2nc[nH]c3nccc2-3)CC1 [capivasertib] | 0.926 |
| CC(C)n1nc(-c2ccc3oc(N)nc3c2)c2c(N)ncnc21 [sapanisertib] | 0.716 |
| O=C(c1ccc(F)c(F)c1Nc1ccc(I)cc1F)N1CC(O)([C@@H]2CCCCN2)C1 [cobimetinib] | 0.803 |
| C[C@H](NC(=O)CCC(F)(F)F)C(=O)N[C@@H]1C(=O)N(CCO)c2ncccc2-c2ccccc21 [crenigacestat] | 2.01 |
| Cc1cc(Nc2ncc(Cl)c(Nc3ccccc3S(=O)(=O)C(C)C)n2)c(OC(C)C)cc1C1CCNCC1 [ceritinib] | 1.11 |
| CS(=O)(=O)c1ccc(C(=O)Nc2ccc(Cl)c(-c3ccccn3)c2)c(Cl)c1 [vismodegib] | 1.64 |
| NC(=O)c1cccc2cn(-c3ccc([C@@H]4CCCNC4)cc3)nc12 [niraparib] | 1.44 |
| Cc1cc(Nc2ncnc3ccc(NC4=NC(C)(C)CO4)cc23)ccc1Oc1ccn2ncnc2c1 [tucatinib] | 1.49 |
| CCN(c1cc(C#CCN2CCOCC2)cc(C(=O)NCc2c(C)cc(C)[nH]c2=O)c1C)[C@H]1CC[C@H](N(C)CCOC)CC1 | 1.77 |

Same assay, conditions: 1 µM; days in culture: 122

| Structure (SMILES) | CTG-3D luminescence at 96 h |
| --- | --- |
| NC1(C(=O)N[C@@H](CCO)c2ccc(Cl)cc2)CCN(c2nc[nH]c3nccc2-3)CC1 [capivasertib] | 1.09 |
| CC(C)n1nc(-c2ccc3oc(N)nc3c2)c2c(N)ncnc21 [sapanisertib] | 0.842 |
| O=C(c1ccc(F)c(F)c1Nc1ccc(I)cc1F)N1CC(O)([C@@H]2CCCCN2)C1 [cobimetinib] | 0.873 |
| C[C@H](NC(=O)CCC(F)(F)F)C(=O)N[C@@H]1C(=O)N(CCO)c2ncccc2-c2ccccc21 [crenigacestat] | 1.97 |
| Cc1cc(Nc2ncc(Cl)c(Nc3ccccc3S(=O)(=O)C(C)C)n2)c(OC(C)C)cc1C1CCNCC1 [ceritinib] | 1.16 |
| CS(=O)(=O)c1ccc(C(=O)Nc2ccc(Cl)c(-c3ccccn3)c2)c(Cl)c1 [vismodegib] | 2.27 |
| NC(=O)c1cccc2cn(-c3ccc([C@@H]4CCCNC4)cc3)nc12 [niraparib] | 1.88 |
| Cc1cc(Nc2ncnc3ccc(NC4=NC(C)(C)CO4)cc23)ccc1Oc1ccn2ncnc2c1 [tucatinib] | 1.73 |
| CCN(c1cc(C#CCN2CCOCC2)cc(C(=O)NCc2c(C)cc(C)[nH]c2=O)c1C)[C@H]1CC[C@H](N(C)CCOC)CC1 | 2.34 |

Same assay, conditions: 1 µM; days in culture: 163

| Structure (SMILES) | CTG-3D luminescence at 96 h |
| --- | --- |
| NC1(C(=O)N[C@@H](CCO)c2ccc(Cl)cc2)CCN(c2nc[nH]c3nccc2-3)CC1 [capivasertib] | 1.56 |
| CC(C)n1nc(-c2ccc3oc(N)nc3c2)c2c(N)ncnc21 [sapanisertib] | 1.1 |
| O=C(c1ccc(F)c(F)c1Nc1ccc(I)cc1F)N1CC(O)([C@@H]2CCCCN2)C1 [cobimetinib] | 1.17 |
| C[C@H](NC(=O)CCC(F)(F)F)C(=O)N[C@@H]1C(=O)N(CCO)c2ncccc2-c2ccccc21 [crenigacestat] | 2.19 |
| Cc1cc(Nc2ncc(Cl)c(Nc3ccccc3S(=O)(=O)C(C)C)n2)c(OC(C)C)cc1C1CCNCC1 [ceritinib] | 1.74 |
| CS(=O)(=O)c1ccc(C(=O)Nc2ccc(Cl)c(-c3ccccn3)c2)c(Cl)c1 [vismodegib] | 2.2 |
| NC(=O)c1cccc2cn(-c3ccc([C@@H]4CCCNC4)cc3)nc12 [niraparib] | 1.78 |
| Cc1cc(Nc2ncnc3ccc(NC4=NC(C)(C)CO4)cc23)ccc1Oc1ccn2ncnc2c1 [tucatinib] | 1.77 |
| CCN(c1cc(C#CCN2CCOCC2)cc(C(=O)NCc2c(C)cc(C)[nH]c2=O)c1C)[C@H]1CC[C@H](N(C)CCOC)CC1 | 2.29 |
